Experiments:
[1] = system: FLK-1 receptor; assay: FLK-1 Assay (cellular/catalytic ELISA, VEGF-stimulated phosphotyrosine); assay type: cell-based; design: concentration or dose not given beside the values; conditions: protocol P.110
How it was run: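 Receptor phosphotyrosine ELISA: Flk-1-expressing NIH3T3 C7#3 cells, starved overnight in 0.1% FBS medium, received compound (1:200 final dilution, 0.5% DMSO) for 2 h at 37 °C, then VEGF. Anti-FLK-1-captured receptor was probed with anti-phosphotyrosine UB40 and peroxidase/ABTS read-out, relative to cells without compound.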

[2] = system: PDGF-R; assay: PDGF-R Assay (cellular ELISA, U1242 cells); assay type: cell-based; design: concentration or dose not given beside the values; conditions: protocol P.119
How it was run: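 Cellular ELISA for receptor autophosphorylation: after 2 hr test-compound treatment of serum-free U1242 cells at 37°C, ligand is added for 5–10 min, cells are lysed (HNTG) and receptor captured by specific antibody. Anti-phosphotyrosine plus secondary antibody with ABTS colour read at 410/630 nm, compared with compound-free control cells.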

Compound | Flk Kinase % Inhibition (P.110) [1] [%] | PDGF Kinase % Inhibition (P.119) [2] [%]
Cc1c(Br)cc(Br)c2c1C(=Cc1cc(O)cc(O)c1)C(=O)N2 [10738/H07] | −17.4 | –
Cc1c(Br)cc(Br)c2c1C(=Cc1ccc(Cl)c(Cl)c1)C(=O)N2 [10738/H08] | −12.7 | –
COc1ccccc1C=C1C(=O)Nc2c(Br)cc(Br)c(C)c21 [10738/H09] | −6.5 | –
Cc1c(Br)cc(Br)c2c1C(=Cc1ccc(C(C)C)cc1)C(=O)N2 [10738/H10] | 1.7 | –
CCCOc1ccc(C=C2C(=O)Nc3c(Br)cc(Br)c(C)c32)cc1 [10738/H11] | −4.1 | –
COc1ccc(C=C2C(=O)Nc3c(Br)cc(Br)cc32)cc1C [10739/A02] | 1.2 | 21.7
O=C1Nc2c(Br)cc(Br)cc2C1=Cc1cccc(OCc2ccccc2)c1 [10739/A03] | 2.9 | 15.4
O=C1Nc2c(Br)cc(Br)cc2C1=Cc1ccc(OCc2ccccc2)cc1 [10739/A04] | −8.2 | 23.2
O=C1Nc2c(Br)cc(Br)cc2C1=CC1COc2ccccc2O1 (stereo not shown) [10739/A05] | −11.0 | 15.9
O=C1Nc2c(Br)cc(Br)cc2C1=Cc1ccc(O)cc1Cl [10739/A06] | 7.4 | 17.8
O=C1Nc2c(Br)cc(Br)cc2C1=Cc1cc(O)c(O)c(O)c1 [10739/A07] | 4.1 | 34.8
COc1ccc(Oc2cccc(C=C3C(=O)Nc4c(Br)cc(Br)cc43)c2)cc1 [10739/A08] | −25.5 | 3.8
CN(C)CCCOc1ccc(C=C2C(=O)Nc3c(Br)cc(Br)cc32)cc1 [10739/A09] | −9.1 | −0.6
O=C1Nc2c(Br)cc(Br)cc2C1=Cc1ccoc1 [10739/A10] | −2.5 | −1.1
O=C1Nc2c(Br)cc(Br)cc2C1=Cc1ccc(CO)o1 [10739/A11] | 3.9 | 1.8
COc1ccc(C=C2C(=O)Nc3ccc(I)cc32)cc1C [10739/B02] | 2.1 | 5.2
O=C1Nc2ccc(I)cc2C1=Cc1cccc(OCc2ccccc2)c1 [10739/B03] | 3.5 | 1.8
O=C1Nc2ccc(I)cc2C1=Cc1ccc(OCc2ccccc2)cc1 [10739/B04] | 13.2 | 19.8
O=C1Nc2ccc(I)cc2C1=CC1COc2ccccc2O1 (stereo not shown) [10739/B05] | 4.1 | 4.7
O=C1Nc2ccc(I)cc2C1=Cc1ccc(O)cc1Cl [10739/B06] | 9.3 | 6.7
O=C1Nc2ccc(I)cc2C1=Cc1cc(O)c(O)c(O)c1 [10739/B07] | 1.1 | 19.8
COc1ccc(Oc2cccc(C=C3C(=O)Nc4ccc(I)cc43)c2)cc1 [10739/B08] | 6.5 | −0.1
CN(C)CCCOc1ccc(C=C2C(=O)Nc3ccc(I)cc32)cc1 [10739/B09] | −15.4 | 74.1
O=C1Nc2ccc(I)cc2C1=Cc1ccoc1 [10739/B10] | −10.1 | −16.1
O=C1Nc2ccc(I)cc2C1=Cc1ccc(CO)o1 [10739/B11] | 12.5 | −9.8
COc1ccc(C=C2C(=O)Nc3ccc(Br)c(C)c32)cc1C [10739/C02] | −10.8 | 10.6
Cc1c(Br)ccc2c1C(=Cc1cccc(OCc3ccccc3)c1)C(=O)N2 [10739/C03] | 16.4 | 10.1

Reference: US20020026053A1, “Novel 3-(substituted) -2- indolinones compounds and use thereof as inhibitors of protein kinase activity” (priority 1997, published 2002)
